Here are results for six compounds from patent publication US20070191356A1, “Pyridobenzoxazine derivative” (priority 2004, published 2007).

The test system of data set [1] is E. coli, NIHJ. Put plainly: Antimicrobial activity MIC, standard method of Japanese Society of Chemotherapy. It is filed as cell-based. As to the method: (§1) The antimicrobial activity of the compounds of the present invention is measured in accordance with the standard method designated by Japanese Society of Chemotherapy and MIC (microgram/ml) values are shown as its results in Table 1.

Data set [2] concerns K. pneumoniae, Type I. The data set is described as above. It is filed as cell-based. As to the method: as §1
The test system of data set [3] is Pr. vulgalis, 08601. The description is as above. It is filed as cell-based. On the procedure: as §1
In data set [4] the test system is Ps. aeruginosa, 32104. The description is as above. It is filed as cell-based. On the procedure: as §1
In data set [5] the test system is Ps. aeruginosa, 32121. The description is as above. It is filed as cell-based. As to the method:
as §1

For data set [6], the system named is S. aureus, 209P. The description is as above. It is filed as cell-based. On the procedure: as §1
The test system of data set [7] is S. aureus, 870307. The description is as above. The format is cell-based. As to the method:
as §1

The test system of data set [8] is S. epidermidis, 56500. The description is as above. It is filed as cell-based. As to the method:
as §1

Data set [9] has as its system S. flexneri, 2A 5503. The data set is described as above. It is filed as cell-based. As to the method:
as §1

Data set [10] relates to S. maltophilia, IID-1275. The data set is described as above. It is filed as cell-based. On the procedure:
as §1

Data set [11] has as its system Ser. marcescens, 10100. Described as above. It is filed as cell-based. On the procedure: as §1
For data set [12], the system named is Str. faecalis, ATCC-19433. Described as above. It is filed as cell-based. As to the method:
as §1

Data set [13] has as its system Str. pneumoniae, J24. The data set is described as above. The format is cell-based. On the procedure: as §1
For data set [14], the system named is Str. pyogenes, G-36. The data set is described as above. It is filed as cell-based. On the procedure:
as §1

Data set [15] has as its system Slc:ddY male mice. Put plainly: Single intravenous dosing toxicity test in mice. It is filed as in vivo. Conditions: single intravenous dose 150 mg/kg, six-week-old Slc:ddY male mice. On the procedure:
The single intravenous dosing toxicity test in mice using the invention compound was carried out in the following manner. The compound was dissolved in and diluted with 0.1 mol/l NaOH/physiological saline. After the diluted solution was sterilized by filtration through a 0.22 μm filter of Millex GS, the resulting sterilized solution was intravenously administered to six-week-old Slc:ddY male mice at an administration rate of 10 ml/kg or 0.2 ml/min as a single dose. Similar to Test 1, the compound obtained in Example 2 of Patent Document 2 was employed as a comparative compound.

The mark [16] stands for this setting: Klebsiella pneumoniae, read-out: MIC.
[17] abbreviates: Pseudomonas aeruginosa, 32104, Ps. aeruginosa, read-out: MIC.
The mark [18] stands for this setting: Pseudomonas aeruginosa, 32121, Ps. aeruginosa, read-out: MIC.
The mark [19] stands for this setting: Staphylococcus aureus, read-out: MIC.
Where [20] appears, read: Staphylococcus epidermidis, 56500, S. epidermidis, read-out: MIC.
Setting [21] is: Stenotrophomonas maltophilia, IID1275, S. maltophilia, read-out: MIC.
Where [22] appears, read: Serratia marcescens, 10100, Ser. marcescens, read-out: MIC.
Where [23] appears, read: Enterococcus faecalis, ATCC19433, Str. faecalis, read-out: MIC.
The mark [24] stands for this setting: Streptococcus pneumoniae, J24, Str. pneumoniae, read-out: MIC.
Where [25] appears, read: Ps. aeruginosa, listed as Ex. 3.
[26] abbreviates: Escherichia coli, read-out: MIC.
[27] abbreviates: Staphylococcus aureus, 870307, S. aureus, read-out: MIC.
The mark [28] stands for this setting: Shigella flexneri, 2A5503, S. flexneri, read-out: MIC.
Where [29] appears, read: Streptococcus pyogenes, G36, Str. pyogenes, read-out: MIC.

SMILES strings stand for the structures. In brackets after ≈: the same amount, converted by molar mass. Read-outs that look alike come from different tables or passages of the source.

As a reminder, the melting point is the temperature, or range, at which the solid turns liquid. For the compound `C[C@H]1COc2c(N3CC(N)C(C(F)F)C3)c(F)cc3c(=O)c(C(=O)O)cn1c23` (single isomer, unassigned) [Example 2], the melting point lay in the range of 247 to 252 °C. Besides, in data set [1] (listed as Ex. 2), the MIC entry is recorded as “≦0.003 microgram/ml”. In addition, in data set [2] (setting [16]), the MIC was found to be 0.05 µg/mL (≈ 0.126 µM). For the same compound, the MIC in data set [3] (listed as Ex. 2) worked out at 0.012 microgram/ml. Moreover, in [4] (setting [17]), the MIC worked out at 0.2 µg/mL (≈ 0.503 µM). In addition, the MIC in data set [5] (setting [18]) turned out to be 0.05 µg/mL (≈ 0.126 µM). Also, the MIC in data set [6] (setting [19]) was 0.025 µg/mL (≈ 0.0629 µM). Also, the MIC in data set [7] (S. aureus, listed as Ex. 2) is 1.56 microgram/ml. Further, the MIC in data set [8] (setting [20]) came out at 0.1 µg/mL (≈ 0.252 µM). Besides, in data set [9] (S. flexneri, listed as Ex. 2), the MIC is on record as 0.012 microgram/ml. Besides, in data set [10] (setting [21]), the MIC came to 0.2 µg/mL (≈ 0.503 µM). Also, in [11] (setting [22]), the MIC is 0.05 µg/mL (≈ 0.126 µM). The MIC in [12] (setting [23]) was 0.39 µg/mL (≈ 0.981 µM). Further, the MIC in [13] (setting [24]) was 0.2 µg/mL (≈ 0.503 µM). Further, the MIC in [14] (Str. pyogenes, listed as Ex. 2) is on record as 0.2 microgram/ml.
In turn, `C[C@H]1COc2c(N3CC(N)C(C(F)F)C3)c(F)cc3c(=O)c(C(=O)O)cn1c23` (single isomer, unassigned) [Example 3] had a melting point of 264 to 268 °C. Further, the MIC in data set [1] (listed as Ex. 3) was determined as 0.012 microgram/ml. Further, in data set [2] (listed as Ex. 3), the MIC was 0.1 microgram/ml. The compound also yielded an MIC in data set [3] (listed as Ex. 3) of 0.025 microgram/ml. This compound had an MIC in data set [4] (setting [25]) of 0.39 microgram/ml. The same compound returned an MIC in data set [5] (setting [25]) of 0.1 microgram/ml. In data set [6] (listed as Ex. 3), this compound displayed an MIC of 0.05 microgram/ml. This compound also gave an MIC in [7] (S. aureus, listed as Ex. 3) of 3.13 microgram/ml. In [8] (S. epidermidis, listed as Ex. 3), this compound had an MIC of 0.2 microgram/ml. The same compound had an MIC in data set [9] (S. flexneri, listed as Ex. 3) of 0.025 microgram/ml. Also, the MIC in data set [10] (S. maltophilia, listed as Ex. 3) is recorded as 0.39 microgram/ml. Also, the MIC in data set [11] (Ser. marcescens, listed as Ex. 3) was 0.1 microgram/ml. The compound also registered an MIC in data set [12] (Str. faecalis, listed as Ex. 3) of 0.78 microgram/ml. In data set [13] (Str. pneumoniae, listed as Ex. 3), this compound displayed an MIC of 0.39 microgram/ml. Further, the MIC in data set [14] (Str. pyogenes, listed as Ex. 3) was determined as 0.78 microgram/ml.
As to `O=C(O)c1cn(C2CC2)c2cc(N3CCNCC3)c(F)cc2c1=O` [CPFX, ciprofloxacin, reference compound], the MIC in data set [1] (setting [26]) is at most 0.003 µg/mL; in data set [2] (setting [16]), 0.025 µg/mL (≈ 0.0754 µM); in data set [3] (read-out: MIC), at most 0.003 µg/mL; in data set [4] (setting [17]), 0.005 µg/mL (≈ 0.0151 µM); in [5] (setting [18]), 0.025 µg/mL (≈ 0.0754 µM); in data set [6] (setting [19]), 0.1 µg/mL (≈ 0.302 µM). In addition, the MIC in [7] (setting [27]) came to 3.13 µg/mL (≈ 9.45 µM); in [8] (setting [20]) it was 0.2 µg/mL (≈ 0.604 µM); in data set [9] (setting [28]) it was 0.006 µg/mL (≈ 0.0181 µM); in [10] (setting [21]), 0.78 µg/mL (≈ 2.35 µM); in data set [11] (setting [22]), 0.025 µg/mL (≈ 0.0754 µM); in [12] (setting [23]) it was 0.78 µg/mL (≈ 2.35 µM). Moreover, the MIC turned out to be 0.1 µg/mL (≈ 0.302 µM) in [13] (setting [24]) and 1.56 µg/mL (≈ 4.71 µM) in data set [14] (setting [29]).
On to `COc1c(N2C[C@H](CF)[C@H](N)C2)c(F)cc2c(=O)c(C(=O)O)cn(C3CC3)c12` [Comparative Compound, reference compound], for which the MIC in [1] (setting [26]) is at most 0.003 µg/mL; in [2] (setting [16]) it was 0.025 µg/mL (≈ 0.0636 µM); in data set [3] (read-out: MIC), 0.006 µg/mL (≈ 0.0153 µM); in [4] (setting [17]), 0.2 µg/mL (≈ 0.508 µM); in data set [5] (setting [18]), 0.05 µg/mL (≈ 0.127 µM); in data set [6] (setting [19]) it was 0.012 µg/mL (≈ 0.0305 µM). Besides, the MIC was found to be 0.39 µg/mL (≈ 0.991 µM) in [7] (setting [27]); 0.05 µg/mL (≈ 0.127 µM) in data set [8] (setting [20]); 0.006 µg/mL (≈ 0.0153 µM) in [9] (setting [28]); 0.05 µg/mL (≈ 0.127 µM) in data set [10] (setting [21]); 0.05 µg/mL (≈ 0.127 µM) in [11] (setting [22]); 0.1 µg/mL (≈ 0.254 µM) in data set [12] (setting [23]). Also, the MIC amounted to 0.025 µg/mL (≈ 0.0636 µM) in [13] (setting [24]) and 0.1 µg/mL (≈ 0.254 µM) in data set [14] (setting [29]). In addition, the “Number of deaths/total number” value in [15] (150 mg/kg) was 3/5; in [15] (listed as comparative compound, 150 mg/kg) it was “three of five mice died”.
Regarding `C[C@H]1COc2c(N3C[C@H](CF)[C@H](N)C3)c(F)cc3c(=O)c(C(=O)O)cn1c23` [Example 1, 10-[3-(S)-Amino-4-(S)-fluoromethylpyrrolidin-1-yl]-9-fluoro-2,3-dihydro-3-(S)-methyl-7-oxo-7H-pyridol-[1,2,3-de][1,4]benzoxazine-6-carboxylic acid], the MIC came to 0.006 µg/mL (≈ 0.0158 µM) in data set [1] (setting [26]); 0.05 µg/mL (≈ 0.132 µM) in data set [2] (setting [16]); 0.012 µg/mL (≈ 0.0316 µM) in [3] (read-out: MIC); 0.1 µg/mL (≈ 0.264 µM) in [4] (setting [17]); 0.025 µg/mL (≈ 0.0659 µM) in [5] (setting [18]); 0.025 µg/mL (≈ 0.0659 µM) in [6] (setting [19]). Besides, the MIC in data set [7] (setting [27]) is 1.56 µg/mL (≈ 4.11 µM); in data set [8] (setting [20]) it was 0.1 µg/mL (≈ 0.264 µM); in data set [9] (setting [28]), 0.012 µg/mL (≈ 0.0316 µM); in data set [10] (setting [21]) it was 0.39 µg/mL (≈ 1.03 µM); in [11] (setting [22]) it was 0.05 µg/mL (≈ 0.132 µM); in data set [12] (setting [23]), 0.2 µg/mL (≈ 0.527 µM). Further, the MIC in data set [13] (setting [24]) worked out at 0.1 µg/mL (≈ 0.264 µM); in data set [14] (setting [29]), 0.2 µg/mL (≈ 0.527 µM). Besides, in data set [15], the “Number of deaths/total number” value is on record as 0/5.
As to `C[C@H]1COc2c(N3CCN(C)CC3)c(F)cc3c(=O)c(C(=O)O)cn1c23` [LVFX, levofloxacin, reference compound], the MIC in [1] (setting [26]) turned out to be 0.12 µg/mL (≈ 0.332 µM); in [2] (setting [16]) it was 0.1 µg/mL (≈ 0.277 µM); in data set [3] (read-out: MIC), 0.012 µg/mL (≈ 0.0332 µM); in data set [4] (setting [17]), 0.2 µg/mL (≈ 0.553 µM); in data set [5] (setting [18]), 0.1 µg/mL (≈ 0.277 µM); in data set [6] (setting [19]), 0.2 µg/mL (≈ 0.553 µM). Besides, the MIC in data set [7] (setting [27]) is above 6.25 µg/mL; in data set [8] (setting [20]), 0.39 µg/mL (≈ 1.08 µM); in [9] (setting [28]), 0.025 µg/mL (≈ 0.0692 µM); in [10] (setting [21]) it was 0.39 µg/mL (≈ 1.08 µM); in data set [11] (setting [22]), 0.1 µg/mL (≈ 0.277 µM); in data set [12] (setting [23]) it was 0.78 µg/mL (≈ 2.16 µM). Further, the figures for the MIC in [13] (setting [24]) and in data set [14] (setting [29]) were 0.78 µg/mL (≈ 2.16 µM) and 0.2 µg/mL (≈ 0.553 µM), respectively.
